Where two headings read alike, the source gives them in different places.

The EC50 is the concentration giving half of the maximal effect.

Assay type in all cases: cell-based
For one assay, the system named is HRV16. The assay is described as follows: HRV16 HeLa EC50 (cytopathic effect in H1-HeLa cells). The procedure, abridged: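 H1-HeLa cells seeded one day before, given 3-fold serial compound dilutions in triplicate just prior to infection with pre-titrated virus. Incubated 96 h at 33 °C/5% CO2; protection from cytopathic effect read as viability by CellTiter-Glo luminescence, normalised to infected untreated (0%) and uninfected (100%) controls.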

The subject of a further assay is RSV A2. The assay is described as follows: RSV NHBE EC50 (RSV A2 antiviral assay in NHBE cells). Conditions: Table 3, NHBE cells, RSV A2, 4 days, read-out: RSV NHBE EC50. The procedure, abridged: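 NHBE cells (≤6 passages) were seeded at 7,500 cells per well, treated with 3-fold serially diluted compound at 0.05% DMSO, then infected with RSV A2 at 1×10^4.5 TCID/mL. After 4 days at 37° C, viability was measured by CellTiter-Glo luminescence.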

Another assay relates to DENV2 replicon. The assay can be described thus: DENV-2 Huh-7 Rep EC50 (replicon luminescence). To be noted: read-out: DENV-2 REP Huh7 EC50. The procedure, abridged: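 Huh-7 cells carrying a DENV2 replicon, 5,000 cells/well, were incubated with dosed compounds for 48 h at 37° C. EnduRen live-cell substrate was added 1.5 h before luminescence reading. EC50 came from dose-response against DMSO-only wells.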

The next assay relates to RSV strain A2. The assay can be described thus: microbe, parasite or virus in culture. To be noted: Table 3, HEp-2 cells, RSV A2, 4 days, read-out: RSV HEp-2 EC50. The procedure, abridged:
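Cytopathic-effect protection assay: HEp-2 cells (50,000/mL) infected with pre-titered RSV A2 onto 3-fold serial compound dilutions, incubated 4 days at 37° C. Cell viability read by CellTiter-Glo luminescence; percent inhibition derived against 0% and 100% virus-inhibition controls.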

Where [1] appears, read: Table 3; H1-HeLa cells, 96 h; read-out: HRV16 HeLa EC50.
[2] abbreviates: Table 3, Huh-7 DENV2 replicon cells, 48 hours.
Setting [3] is: 96 h, Table 3; H1-HeLa cells, 96 h; read-out: HRV16 HeLa EC50.
[4] abbreviates: human respiratory syncytial virus, NHBE, 96 h.
Where [5] appears, read: Dengue virus, DENV2, Huh-7, 48 h.
Where [6] appears, read: human respiratory syncytial virus, HEp-2, 96 h.

Consider `CCCOC(=O)[C@H](C)NP(=O)(OC[C@@]1(C#N)O[C@@H](c2ccc3c(N)ncnn23)[C@H](OC(=O)C(C)C)[C@@H]1OC(=O)C(C)C)Oc1ccccc1` (single isomer, unassigned) [Example 192], for which the EC50 with HRV16 (setting [1]) was found to be 0.101 µM; in the assay on RSV A2, 0.045 µM; in the assay with DENV2 replicon (setting [2]) it was 8.67 µM; with RSV strain A2, 0.029 µM.
The matching figures for `CCC(=O)OC1C(c2ccc3c(N)ncnn23)OC(C#N)(COP(=O)(NC(C)C(=O)OCC2COC2)Oc2ccccc2)C1OC(=O)CC` (single isomer, unassigned) [Example 205]: 0.286 µM, 0.021 µM, 19 µM and 0.164 µM.
Take `CC(C)C(=O)OC1C(c2ccc3c(N)ncnn23)OC(C#N)(COP(=O)(NC(C)C(=O)OCC2CCC(N)CC2)Oc2ccccc2)C1OC(=O)C(C)C` (single isomer, unassigned) [Example 208]: the EC50 was 15.2 µM with HRV16 (setting [1]), 0.215 µM with RSV A2, > 50 µM in the assay with DENV2 replicon (setting [2]) and 2.12 µM with RSV strain A2.
Regarding `CC(C)C(=O)OC1C(c2ccc3c(N)ncnn23)OC(C#N)(COP(=O)(NC(C)C(=O)OCC2CCC(N)CC2)Oc2ccccc2)C1OC(=O)C(C)C` (single isomer, unassigned) [Example 209], the EC50 in the assay on HRV16 (setting [1]) is 8.52 µM; in the assay on RSV A2, 0.168 µM; in the assay on DENV2 replicon (setting [2]), 31.4 µM; in the assay on RSV strain A2, 1.57 µM.
For `C[C@H](N[P@](=O)(OC[C@@]1(C#N)O[C@@H](c2ccc3c(N)ncnn23)C(OC(=O)c2ccccc2)[C@@H]1OC(=O)c1ccccc1)Oc1ccccc1)C(=O)OC1CCCCC1` (stereo in doubt) [Example 83, (2R,3S,4R,5S)-5-(4-aminopyrrolo[2,1-f][1,2,4]triazin-7-yl)-2-cyano-2-((((S)-(((S)-1-(cyclohexyloxy)-1-oxopropan-2-yl)amino)(phenoxy)phosphoryl)oxy)methyl) tetrahydrofuran-3,4-diyl dibenzoate], the EC50 is 17.4 µM with HRV16 (setting [3]), > 5 µM in the assay on RSV A2 (setting [4]), 5.16 µM in the assay with DENV2 replicon (setting [5]) and > 100 µM with RSV strain A2 (setting [6]).
For `CCC(=O)OC1[C@H](c2ccc3c(N)ncnn23)O[C@](C#N)(COP(=O)(N[C@@H](C)C(=O)OCC2CCOCC2)Oc2ccccc2)[C@H]1OC(=O)CC` (stereo in doubt) [Example 107, (2R,3S,4R,5S)-5-(4-aminopyrrolo[2,1-f][1,2,4]triazin-7-yl)-2-cyano-2-((((((S)-1-oxo-1-((tetrahydro-2H-pyran-4-yl)methoxy)propan-2-yl)amino)(phenoxy)phosphoryl)oxy)methyl)tetrahydrofuran-3,4-diyl dipropionate], in that order: 0.388 µM, 0.031 µM, 22.4 µM and 0.098 µM.
The matching figures for `CC(=O)OC1[C@H](c2ccc3c(N)ncnn23)O[C@](C#N)(COP(=O)(N[C@@H](C)C(=O)OCC2CCOCC2)Oc2ccccc2)[C@H]1OC(C)=O` (stereo in doubt) [Example 110, (2R,3S,4R,5S)-5-(4-aminopyrrolo[2,1-f][1,2,4]triazin-7-yl)-2-cyano-2-((((((S)-1-oxo-1-((tetrahydro-2H-pyran-4-yl)methoxy)propan-2-yl)amino)(phenoxy)phosphoryl)oxy)methyl)tetrahydrofuran-3,4-diyl diacetate]: 2.51 µM, 0.04 µM, 56.3 µM and 0.327 µM.
For `CC(=O)OC1[C@H](c2ccc3c(N)ncnn23)O[C@](C#N)(COP(=O)(N[C@@H](C)C(=O)OCC2CCN(CC(F)(F)F)CC2)Oc2ccccc2)[C@H]1OC(C)=O` (stereo in doubt) [Example 118, (2R,3S,4R,5S)-5-(4-aminopyrrolo[2,1-f][1,2,4]triazin-7-yl)-2-cyano-2-((((((S)-1-oxo-1-((1-(2,2,2-trifluoroethyl)piperidin-4-yl)methoxy)propan-2-yl)amino)(phenoxy)phosphoryl)oxy)methyl)tetrahydrofuran-3,4-diyl diacetate], in that order: 0.736 µM, 0.026 µM, 54.4 µM and 0.224 µM.
Take `CC(C)CCC(=O)O[C@H]1[C@H](c2ccc3c(N)ncnn23)O[C@](C#N)(CO[P@@](=O)(N[C@@H](C)C(=O)OC2CCCCC2)Oc2ccccc2)[C@H]1OC(=O)CCC(C)C` [Example 78, (2R,3S,4S,5S)-5-(4-aminopyrrolo[2,1-f][1,2,4]triazin-7-yl)-2-cyano-2-((((S)-(((S)-1-(cyclohexyloxy)-1-oxopropan-2-yl)amino)(phenoxy)phosphoryl)oxy)methyl) tetrahydrofuran-3,4-diyl bis(4-methylpentanoate)]: the EC50 in the assay with HRV16 (setting [3]) worked out at 6.52 µM; in the assay on RSV A2 (setting [4]), 0.71 µM; in the assay with DENV2 replicon (setting [5]), 31.8 µM; in the assay with RSV strain A2 (setting [6]), 1.35 µM.
The matching figures for `CC(C)C(=O)O[C@H]1[C@H](c2ccc3c(N)ncnn23)O[C@](C#N)(CO[P@@](=O)(N[C@@H](C)C(=O)O[C@H]2CC[C@H](C(F)(F)F)CC2)Oc2ccccc2)[C@H]1OC(=O)C(C)C` [Example 79, (2R,3S,4S,5S)-5-(4-Aminopyrrolo[2,1-f][1,2,4]triazin-7-yl)-2-cyano-2-((((S)-(((S)-1-oxo-1-((trans-4-(trifluoromethyl)cyclohexyl)oxy)propan-2-yl)amino) (phenoxy)phosphoryl)oxy)methyl)tetrahydrofuran-3,4-diyl bis(2-methylpropanoate)]: 0.217 µM, 0.019 µM, 12.4 µM and 0.105 µM.
Regarding `CC(C)C(=O)O[C@H]1[C@H](c2ccc3c(N)ncnn23)O[C@](C#N)(CO[P@@](=O)(N[C@@H](C)C(=O)O[C@H]2CC[C@H](C(C)(C)C)CC2)Oc2ccccc2)[C@H]1OC(=O)C(C)C` [Example 80, (2R,3S,4S,5S)-5-(4-Aminopyrrolo[2,1-f][1,2,4]triazin-7-yl)-2-((((S)-(((S)-1-(((1r,4S)-4-(tert-butyl)cyclohexyl)oxy)-1-oxopropan-2-yl)amino)(phenoxy)phosphoryl)oxy)methyl)-2-cyanotetrahydrofuran-3,4-diyl bis(2-methylpropanoate)], the EC50 in the assay with HRV16 (setting [3]) was found to be 1.57 µM; with RSV A2 (setting [4]), 0.158 µM; in the assay with DENV2 replicon (setting [5]), 5.3 µM; in the assay with RSV strain A2 (setting [6]) it was 1.18 µM.
With `CC(C)OC(=O)[C@H](C)N[P@](=O)(OC[C@@]1(C#N)O[C@@H](c2ccc3c(N)ncnn23)[C@H](OC(=O)C(C)C)[C@@H]1OC(=O)C(C)C)Oc1ccccc1` [Example 84, (2R,3S,4S,5S)-5-(4-aminopyrrolo[2,1-f][1,2,4]triazin-7-yl)-2-cyano-2-((((S)-(((S)-1-isopropoxy-1-oxopropan-2-yl)amino)(phenoxy)phosphoryl)oxy)methyl) tetrahydrofuran-3,4-diyl bis(2-methylpropanoate)], the EC50 stood at 0.121 µM in the assay on HRV16 (setting [3]), 0.016 µM with RSV A2 (setting [4]), 13 µM with DENV2 replicon (setting [5]) and 0.058 µM with RSV strain A2 (setting [6]).
Turning to `CC(C)C(=O)O[C@H]1[C@H](c2ccc3c(N)ncnn23)O[C@](C#N)(COP(=O)(N[C@@H](C)C(=O)OC[C@H]2CC[C@H](C(F)(F)F)CC2)Oc2ccccc2)[C@H]1OC(=O)C(C)C` (some centres unmarked) [Example 87], the EC50 amounted to 0.22 µM in the assay with HRV16 (setting [3]), 0.023 µM in the assay on RSV A2 (setting [4]), 12.3 µM in the assay with DENV2 replicon (setting [5]) and 0.119 µM in the assay on RSV strain A2 (setting [6]).
As for `CC(=O)O[C@H]1[C@H](c2ccc3c(N)ncnn23)O[C@](C#N)(CO[P@@](=O)(N[C@@H](C)C(=O)OC(C)C)Oc2ccccc2)[C@H]1OC(C)=O` [Example 89, (2R,3S,4S,5S)-5-(4-Aminopyrrolo[2,1-f][1,2,4]triazin-7-yl)-2-cyano-2-((((S)-(((S)-1-isopropoxy-1-oxopropan-2-yl)amino)(phenoxy)phosphoryl)oxy)methyl) tetrahydrofuran-3,4-diyl diacetate], the concentration for a half-maximal effect (EC50) is 0.785 µM in the assay with HRV16 (setting [3]), 0.126 µM with RSV A2 (setting [4]), 49.7 µM in the assay on DENV2 replicon (setting [5]) and 0.195 µM with RSV strain A2 (setting [6]).
Take `CCC(=O)OC1C(c2ccc3c(N)ncnn23)OC(C#N)(COP(=O)(NC(C)C(=O)OCC2CCC2)Oc2ccccc2)C1OC(=O)CC` (centres unmarked) [Example 92]: the concentration for a half-maximal effect (EC50) with HRV16 (setting [1]) came out at 0.104 µM; with RSV A2 it was 0.033 µM; in the assay on DENV2 replicon (setting [2]), 13.6 µM; with RSV strain A2 it was 0.041 µM.
As for `CCC(=O)OC1C(c2ccc3c(N)ncnn23)OC(C#N)(COP(=O)(NC(C)C(=O)OCC2CCC2)Oc2ccccc2)C1OC(=O)CC` (centres unmarked) [Example 93], the EC50 stood at 0.171 µM in the assay on HRV16 (setting [1]), 0.025 µM in the assay with RSV A2, 12.8 µM with DENV2 replicon (setting [2]) and 0.048 µM with RSV strain A2.
The matching figures for `CC(=O)O[C@H]1[C@H](c2ccc3c(N)ncnn23)O[C@](C#N)(CO[P@@](=O)(N[C@@H](C)C(=O)OCC2CCC2)Oc2ccccc2)[C@H]1OC(C)=O` [Example 95]: 0.429 µM, 0.02 µM, 19.8 µM and 0.09 µM.

The values are drawn from patent US12264173B2 (GILEAD SCIENCES, INC., priority 2020, dated 2025).
